Experiments:
[1] = test system: SKMEL-28 cells; assay: DDA-induced cytotoxicity (cell death); format: cell-based; conditions: for cell death: SKMEL-28, 5 µM 22(R)HC, 0.5 µM TO, 1 µM GW
Method: (§1) Melanoma cells were seeded into 6-well plates at 60,000 cells per well and AML cells at 250,000 cells/ml. The cells were then treated with control solvent vehicle (1/1000 ethanol in water) or DDA. Where indicated, treated cells were incubated in the presence or absence of each inhibitor for time shown. Cell death was determined by the trypan blue exclusion assay. Cells were scraped and resuspended in trypan blue solution (0.25% (w/v) in PBS) and counted in a Malassez cell under light microscopy. Cell viability was then quantified by counting viable (trypan blue-negative) and dead cells (trypan blue-positive).
(§2) Supplementary Fig. 1. a DDA inhibited m elanom a colony form ation. Melanom a cells were […]
(§3) a 0.5% solution of crystal violet in water and analyzed by microscopy. Images are representative of 5 independent experiments. b Evaluation of DDA-induced cytotoxicity (cytotox) and clonogenicity (clono) inhibition in a subset of human (H) and mouse (M) m elanom a cell lines. T he BRaf status in m elanom a cells lines is shown. […]

[2] = test system: B16F10 cells; assay: DDA-induced cytotoxicity (cell death); format: cell-based; conditions: for cell death: B16F10, 5 µM 22(R)HC, 0.5 µM TO, 1 µM GW
Method: as §1, §2, §3

[3] = test system: SKMEL-28 cells; assay: RT-qPCR of LXR-responsive genes; format: cell-based, human; conditions: 8 h, 2.5 µM DDA, 10 µM 22(R)HC, 1 µM GW, 100 nM TO, vs vehicle
Method: Total RNA was extracted from tumor cells or MEFs using an RNA Extraction kit (Qiagen) or Trizol (Invitrogen), respectively, and was quantified with NanoDrop. Complementary DNA (cDNA) synthesis was performed with 1 μg RNA iScript Reverse Transcriptase (Bio-Rad). 25 ng cDNA was amplified using SyBR Supermix (Bio-Rad). RNA expression of the different genes of interest (Supplementary Tables 1, 2) were determined using the ΔΔCT method, where the difference in the threshold cycle (ΔCT) values of the target gene and the housekeeping gene for each sample was normalized to the ΔCT value of the untreated sample.
Supplementary Fig. 4. a R egulat ion of LXR-responsive genes b y D DA and other k nown LXR
ligands in B16F10 and SKMEL- 28 cells transfected with s iRN A targeting LXRβ ( siLXRβ) or
with contro l siRN A scram ble (siSC). Cells were treated for 8 h with either solvent vehicle, 2.5
µM DD A, 10 µM 22(R) hydrox ycholesterol (22(R)HC), 1 µM GW 3965 (GW ) or 100 nM
T O901317 (T O). […]

## CC(C)CC[C@@H](O)[C@@H](C)[C@H]1CC[C@H]2[C@@H]3CC=C4C[C@@H](O)CC[C@]4(C)[C@H]3CC[C@]12C [22(R)HC, 22(R)-hydroxycholesterol]
[1]
  cell death: no impact on cell death
[2]
  cell death: no impact on cell death
[3]; SKMEL-28, siCT
  ABCA1 mRNA: 6.5±0.1 fold
  ABCG1 mRNA: 2.1±0.2 fold
  ABCG5 mRNA: 4.5±0.1 fold
  ABCG8 mRNA: 0.4±0.1 fold
  LC3A mRNA: 1.0±0.2 fold
  LC3B mRNA: 0.9±0.2 fold
  LDLR mRNA: 0.4±0.1 fold
  NOR1 mRNA: 1.8±0.1 fold
  Nur77 mRNA: 1.6±0.2 fold
  SCD1 mRNA: 1.0±0.2 fold
  SREBP1 mRNA: 2.3±0.2 fold
  SULT2B1b mRNA: 1.9±0.1 fold
[3]; SKMEL-28, siLXRβ
  ABCA1 mRNA: 1.5±0.1 fold
  ABCG1 mRNA: 0.2±0.1 fold
  ABCG5 mRNA: 1.7±0.3 fold
  ABCG8 mRNA: 0.7±0.2 fold
  LC3A mRNA: 1.0±0.2 fold
  LC3B mRNA: 1.0±0.1 fold
  LDLR mRNA: 1.1±0.1 fold
  NOR1 mRNA: 1.2±0.2 fold
  Nur77 mRNA: 0.8±0.2 fold
  SCD1 mRNA: 0.8±0.1 fold
  SREBP1 mRNA: 0.9±0.3 fold
  SULT2B1b mRNA: 1.0±0.2 fold

## CC(C)CCC[C@@H](C)[C@H]1CC[C@H]2[C@@H]3C[C@@H](NCCc4cnc[nH]4)[C@@]4(O)C[C@@H](O)CC[C@]4(C)[C@H]3CC[C@]12C [DDA, Dendrogenin A]
[1]; Homo sapiens, SK-MEL-28, SKMEL-28 (H), BRaf V600E, 72 h, read-out: Cytotox EC50
  EC50: 2100 ± 200 nM
[2]; Mus musculus, B16-F10, 72 h, read-out: Cytotox EC50
  EC50: 700 ± 100 nM
[3]; SKMEL-28, siCT
  ABCA1 mRNA: 0.4±0.1 fold
  ABCG1 mRNA: 1.0±0.1 fold
  ABCG5 mRNA: 3.9±0.4 fold
  ABCG8 mRNA: 0.2±0.1 fold
  LC3A mRNA: 1.7±0.2 fold
  LC3B mRNA: 1.6±0.1 fold
  LDLR mRNA: 3.2±0.3 fold
  NOR1 mRNA: 4.8±0.2 fold
  Nur77 mRNA: 8.2±0.2 fold
  SCD1 mRNA: 2.2±0.2 fold
  SREBP1 mRNA: 0.9±0.2 fold
  SULT2B1b mRNA: 2.9±0.1 fold
[3]; SKMEL-28, siLXRβ
  ABCA1 mRNA: 0.9±0.1 fold
  ABCG1 mRNA: 0.8±0.2 fold
  ABCG5 mRNA: 1.1±0.2 fold
  ABCG8 mRNA: 0.7±0.2 fold
  LC3A mRNA: 0.8±0.2 fold
  LC3B mRNA: 0.9±0.3 fold
  LDLR mRNA: 1.8±0.2 fold
  NOR1 mRNA: 1.0±0.1 fold
  Nur77 mRNA: 1.2±0.2 fold
  SCD1 mRNA: 1.2±0.1 fold
  SREBP1 mRNA: 1.0±0.3 fold
  SULT2B1b mRNA: 1.1±0.2 fold

## O=S(=O)(c1ccccc1)N(CC(F)(F)F)c1ccc(C(O)(C(F)(F)F)C(F)(F)F)cc1 [TO, TO901317]
[1]
  cell death: no impact on cell death
[2]
  cell death: no impact on cell death
[3]; SKMEL-28, siCT
  ABCA1 mRNA: 4.2±1.2 fold
  ABCG1 mRNA: 2.8±0.5 fold
  ABCG5 mRNA: 3.1±0.5 fold
  ABCG8 mRNA: 1.5±0.1 fold
  LC3A mRNA: 0.8±0.1 fold
  LC3B mRNA: 0.9±0.2 fold
  LDLR mRNA: 1.0±0.2 fold
  NOR1 mRNA: 1.7±0.1 fold
  Nur77 mRNA: 1.1±0.2 fold
  SCD1 mRNA: 1.8±0.2 fold
  SREBP1 mRNA: 1.8±0.3 fold
  SULT2B1b mRNA: 1.8±0.2 fold
[3]; SKMEL-28, siLXRβ
  ABCA1 mRNA: 2.2±0.3 fold
  ABCG1 mRNA: 1.1±0.2 fold
  ABCG5 mRNA: 1.1±0.1 fold
  ABCG8 mRNA: 0.8±0.1 fold
  LC3A mRNA: 0.9±0.1 fold
  LC3B mRNA: 0.9±0.1 fold
  LDLR mRNA: 0.9±0.1 fold
  NOR1 mRNA: 1.0±0.2 fold
  Nur77 mRNA: 1.1±0.2 fold
  SCD1 mRNA: 1.2±0.2 fold
  SREBP1 mRNA: 1.3±0.2 fold
  SULT2B1b mRNA: 1.3±0.2 fold

## O=C(O)Cc1cccc(OCCCN(Cc2cccc(C(F)(F)F)c2Cl)CC(c2ccccc2)c2ccccc2)c1 [GW, GW3965]
[1]
  cell death: no impact on cell death
[2]
  cell death: no impact on cell death
[3]; SKMEL-28, siCT
  ABCA1 mRNA: 15.1±2 fold
  ABCG1 mRNA: 3.2±0.5 fold
  ABCG5 mRNA: 3.1±0.5 fold
  ABCG8 mRNA: 1.5±0.1 fold
  LC3A mRNA: 0.8±0.2 fold
  LC3B mRNA: 0.9±0.1 fold
  LDLR mRNA: 1.0±0.2 fold
  NOR1 mRNA: 1.5±0.1 fold
  Nur77 mRNA: 0.7±0.2 fold
  SCD1 mRNA: 1.6±0.1 fold
  SREBP1 mRNA: 2.6±0.3 fold
  SULT2B1b mRNA: 2.8±0.1 fold
[3]; SKMEL-28, siLXRβ
  ABCA1 mRNA: 2.2±0.3 fold
  ABCG1 mRNA: 1.2±0.1 fold
  ABCG5 mRNA: 1.1±0.1 fold
  ABCG8 mRNA: 0.8±0.1 fold
  LC3A mRNA: 1.0±0.3 fold
  LC3B mRNA: 1.1±0.3 fold
  LDLR mRNA: 0.9±0.1 fold
  NOR1 mRNA: 0.8±0.1 fold
  Nur77 mRNA: 0.9±0.2 fold
  SCD1 mRNA: 1.1±0.1 fold
  SREBP1 mRNA: 1.5±0.2 fold
  SULT2B1b mRNA: 1.1±0.2 fold

Reference: article PMC5712521, “Dendrogenin A drives LXR to trigger lethal autophagy in cancers” (Nature Communications, 2017)
